Laboratory results from patent EP0947515A1, “NOVEL NAPHTHYRIDINE DERIVATIVES” (SUMITOMO PHARMACEUTICALS COMPANY, LIMITED, priority 1996, dated 1998).

Key:
[1] = target: T1, ACAT (Rattus norvegicus, UniProt O70536); test: Assay of ACAT inhibitory activity in the macrophage derived from rat peritoneal; format: cell-based; conditions: 10^-7 M, radioactive oleic acid and exogenous cholesterol in liposome, read-out: ACAT inhibitory rate (%) 10^-7 M
T1 construct: The rat peritoneal-derived macrophage was prepared; endogenous in cells; host or cells: rat peritoneal macrophages (primary)
T1 sequence (O70536 1-545): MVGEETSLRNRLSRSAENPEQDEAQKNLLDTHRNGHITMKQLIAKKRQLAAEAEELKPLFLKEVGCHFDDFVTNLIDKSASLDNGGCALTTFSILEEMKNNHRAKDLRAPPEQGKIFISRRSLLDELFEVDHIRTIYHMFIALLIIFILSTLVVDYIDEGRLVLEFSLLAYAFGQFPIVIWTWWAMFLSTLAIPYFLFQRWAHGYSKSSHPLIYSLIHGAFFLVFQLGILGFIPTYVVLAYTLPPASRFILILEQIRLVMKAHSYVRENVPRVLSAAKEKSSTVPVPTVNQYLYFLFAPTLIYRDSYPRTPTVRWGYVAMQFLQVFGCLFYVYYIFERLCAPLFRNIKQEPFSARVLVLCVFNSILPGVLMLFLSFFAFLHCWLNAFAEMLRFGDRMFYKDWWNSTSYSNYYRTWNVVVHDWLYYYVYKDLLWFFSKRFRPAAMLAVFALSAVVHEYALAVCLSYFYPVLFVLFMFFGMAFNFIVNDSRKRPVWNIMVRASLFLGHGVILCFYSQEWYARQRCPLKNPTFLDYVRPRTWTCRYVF
Protocol: 2. Assay of ACAT inhibitory activity in the macrophage derived from rat peritoneal
The rat peritoneal-derived macrophage was prepared according to the method disclosed in the literature: Biochimica et Biophysica Acta, 1126, 73-80, 1992. The ACAT activity was determined by a modified method of the method disclosed in the above literature: Biochimica et Biophysica Acta, 1126, 73-80, 1992, i.e., using radioactive [9, 10-H]oleic acid and exogenous cholesterol contained in the liposome which was reconstituted according to the method disclosed in the literature: Biochimica et Biophysica Acta, 1213, 127-134, 1994, and calculated from the radioactivity of the labeled cholesterolyl oleate.

[2] = system: ACAT; test: Assay of ACAT inhibitory activity in a specimen prepared from rabbit liver; format: biochemical, New Zealand white rabbit; conditions: enzyme specimen from liver of cholesterol-fed rabbit, [1-14C]oleoyl-CoA and endogenous cholesterol, 0.1 µM
Protocol: 1. Assay of ACAT inhibitory activity in a specimen prepared from rabbit liver
An enzyme specimen ACAT was prepared according to the method disclosed in the literature: J. Lipid. Research, 30, 681-690, 1989, from the liver of New Zealand white rabbit, which had been fed with 1 % cholesterol feed for one month. The ACAT activity was determined according to the method disclosed in the literature: J. Lipid Research, 24, 1127-1134, 1983, i.e., using radioactive [1-14C]oleoyl-CoA and endogenous cholesterol contained in the liver microsome, and calculated from the radioactivity of the labeled cholesterol oleate.

inhibition at 0.1 µM [1]: 96%
SMILES: CCCCn1c(=O)c(NC(=O)Nc2c(C(C)C)cccc2C(C)C)c(-c2cccc(C#CCN3CCCC3)c2)c2cccnc21 [Example 90, N-[1-butyl-4-[3-{3-(1-pyrrolidinyl)-1-propynyl)phenyl}-1,2-dihydro-2-oxo-1,8-naphthyridin-3-yl)-N'-(2,6-diisopropylphenyl)urea]
ACAT inhibitory rate (%) 10^-7 M [2]: 39%
